Several values for one entry are separate records, joined by “and”; a condition that tells them apart may be missing. Equal values may be shown once.
Columns and labels:
Type in all cases: in vivo, mouse
[1] = system: MC38 colon tumors; experiment: MC38 colon tumor growth in C57BL/6 mice
Experimental: (§1) Male or female mice were injected subcutaneously with 5 × 10^5 MC38 tumor cells resuspended in 100 μl D-PBS into the flank. Alternatively, female mice were injected orthotopically with 5 × 10^5 AT3 or AT3-OVA or PTPN2-deleted AT3 or AT3-OVA tumor cells resuspended in 20 μl D-PBS into the fourth mammary fat pad. Tumor sizes were measured in two dimensions (mm^2) using electronic callipers two to three times per week as soon as tumors were palpable (20–25 mm^2).

[2] = system: MC38 colon tumors; experiment: Tumor-infiltrating lymphocytes in MC38 tumors; design: CD4 EM, individual mice / CD8 EM, individual mice / GRZMB, individual mice / B cells, individual mice / NK cells, individual mice / Tregs, individual mice / MDSCs, individual mice: unit not given here
Experimental: Tumor-bearing mice were sacrificed and tumors were excised and digested at 37 °C for 30 min using a cocktail of 1 mg/ml collagenase type IV (Worthington Biochemicals) and 0.02 mg/ml DNase I (Sigma-Aldrich) in DMEM supplemented with 2% (v/v) FBS. Cells were passed through a 70 μm cell strainer (BD Biosciences) twice and processed for flow cytometry. For assessing T cell activation, cells were surface stained with fluorophore-conjugated antibodies to CD62L, CD44, PD-1, and TIM-3. For the assessment of NK cells, B cells, myeloid-derived suppressor cells (MDSCs), dendritic cells (DCs), and tumor-associated macrophages, cells were surface stained with fluorophore-conjugated antibodies to NK1.1, TCRβ, CD19, CD11b, CD11c, F4/80, Ly6C and Ly6G. For the detection of intracellular cytokines TNF and IFNγ, T cells were stimulated with PMA (20 ng/ml; Sigma-Aldrich) and ionomycin (1 μg/ml; Sigma-Aldrich) in the presence of GolgiPlug™ and GolgiStop™ (BD Biosciences) for 4 h at 37 °C in complete T cell medium. For the intracellular detection of granzyme B, cells were processed untreated without the addition of BD GolgiPlug™ and BD GolgiStop™.

[3] = system: AT3 mammary tumors; experiment: AT3 mammary tumor growth in C57BL/6 mice
Experimental: as §1

[4] = Histology of liver, lungs, salivary glands, colon (H&E, Sirius Red); conditions: 10 mg/kg i.v.
[5] = Serum liver enzymes AST and ALT; design: Serum ALT: unit not given here
Source text: CD3ε (BD Biosciences Cat# 553058) and CD28 (BD Biosciences Cat# 557393) antibodies for T cell stimulation and NK1.1 (BD Biosciences Cat# 564143) antibody for NK cell stimulation were purchased from BD Biosciences. Ly49H (clone 3D10, BioLegend Cat# 144702) antibody for NK stimulation was from BioLegend. For analyzing T cell signaling, p-(Y418) SFK (Thermo Fisher Scientific Cat# 14-9034-82) was from Invitrogen and p-(Y694) STAT-5 (D47E7) XP® (Cell Signaling Technology Cat# 4322) was from Cell Signaling. Recombinant human IL-2, recombinant murine IL-7 and recombinant human IL-15 were purchased from the PeproTech, recombinant mouse IL-12 and recombinant human IL-18 were from Australia Biosearch and […] (N4) from Mimotopes. InVivoMAb anti-mouse PD-1 (Bio X Cell Cat# BE0146) and InVivoMAb rat IgG2a isotype control (Bio X Cell Cat# BE0251) were purchased from Bio X Cell. DNase I was from Sigma-Aldrich. Rabbit monoclonal PTP1B (Abcam Cat# ab244207) antibody for flow cytometry was from Abcam and mouse monoclonal PTPN2 6F3 antibody for immunoblotting and flow cytometry was from MédiMabs (Cat# MM-019-P). Mouse anti-actin (Thermo Fisher Scientific Cat# MA5-11866) from Invitrogen and mouse α-tubulin (Sigma-Aldrich Cat# T5168) was from Merck. The mouse anti-nuclear antibodies Ig’s (total IgA+G + M) ELISA Kit was from Alpha Diagnostic Int. and the Transaminase II Kit from Wako Pure Chemicals. FBS was purchased from Thermo Scientific, RPMI 1640, DMEM, MEM, HEPES, non-essential amino acids, penicillin/streptomycin, and sodium-pyruvate were from Invitrogen, collagenase type IV was purchased from Worthington Biochemical and ABBV-CLS-484 was from MedChemExpress (Cat# HY-145923).

[6] = 10 mg, day 10 post injection, listed as CMP-182, in mm2
[7] = 10 mg, day 13 post injection, listed as CMP-182, in mm2
[8] = 10 mg, day 16 post injection, listed as CMP-182, in mm2
[9] = MC38 tumours, Figure 4B, listed as CMP-182
[10] = MC38 tumours, Figure 4C, listed as CMP-182

SMILES: CC(C)(O)CCOc1ccc2cc(O)c(N3CC(=O)NS3(=O)=O)c(F)c2c1 [Compound 182, 5-(1-Fluoro-3-hydroxy-7-(3-hydroxy-3-methylbutoxy)naphthalen-2-yl)−1,2,5-thiadiazolidin-3-one 1,1-dioxide]
- Tumour weights MC38, individual mice ([1]; 10 mg, Figure 4A, listed as CMP-182, in mg (unit assumed)): 243 and 125 and 480 and 119 and 315
- Tumour growth MC38, individual mice ([1]; 10 mg, day 7 post injection, listed as CMP-182, in mm2): 20.3252 and 20.2131 and 15.2865 and 13.9084 and 14.2859
- Tumour growth MC38, individual mice [1, 6]: 21.1854 and 45.7254 and 22.9296 and 28.815 and 21.9308
- Tumour growth MC38, individual mice [1, 7]: 21.6489 and 72.4458 and 32.816 and 40.3221 and 29.9376
- Tumour growth MC38, individual mice ([1]; 10 mg, day 15 post injection, listed as CMP-182, in mm2): 31.85 and 42.18 and 22.5 and 27 and 32.94
- Tumour growth MC38, individual mice [1, 8]: 29.5394 and 119.382 and 44.1741 and 56.472 and 40.779
- Tumour growth MC38, individual mice ([1]; 10 mg, day 18 post injection, listed as CMP-182, in mm2): 34.2 and 109.2 and 37.7 and 77.4 and 61.62
- Tumour growth MC38, individual mice ([1]; 10 mg, day 20 post injection, listed as CMP-182, in mm2): 38.76 and 109.2 and 38.35 and 60.8 and 61.62
- growth of subcutaneous MC38 colorectal tumors ([1]; 10 mg/kg i.v. every 2 days): repressed the growth
- Tumour size, mean over all time points ([1]; Figure 4A (MC38), CMP-182 10 mg, n=5, line printed as AT-3, in mm2): 42.78
- Tumour weights, median ([1]; MC38 tumours, CMP-182 10 mg, Figure 4A): 243.0, n=5
- Tumour size, Predicted (LS) mean 2 ([1]; MC38 tumours, CMP-182 10 mg, n=5, time point 7, Figure 4A, in mm2): 16.8
- Tumour size, Predicted (LS) mean 2 ([1]; MC38 tumours, CMP-182 10 mg, n=5, time point 10, Figure 4A, in mm2): 28.12
- Tumour size, Predicted (LS) mean 2 ([1]; MC38 tumours, CMP-182 10 mg, n=5, time point 13, Figure 4A, in mm2): 39.43
- Tumour size, Predicted (LS) mean 2 ([1]; MC38 tumours, CMP-182 10 mg, n=5, time point 15, Figure 4A, in mm2): 31.29
- Tumour size, Predicted (LS) mean 2 ([1]; MC38 tumours, CMP-182 10 mg, n=5, time point 16, Figure 4A, in mm2): 58.07
- Tumour size, Predicted (LS) mean 2 ([1]; MC38 tumours, CMP-182 10 mg, n=5, time point 18, Figure 4A, in mm2): 64.02
- Tumour size, Predicted (LS) mean 2 ([1]; MC38 tumours, CMP-182 10 mg, n=5, time point 20, Figure 4A, in mm2): 61.75
- TILs in MC38 tumors ([2]; 10 mg/kg i.v.): increased TILs
- CD4 EM, individual mice [2, 9]: 7887.52 and 30840.7 and 10292.6 and 20601 and 9909.06
- CD8 EM, individual mice [2, 9]: 15044.4 and 39708.3 and 17222.4 and 39521.3 and 13554.1
- GRZMB, individual mice [2, 9]: 88.5 and 78.2 and 82.1 and 82.7 and 77.1
- PD-1 TIM-3, individual mice [2, 9]: 71 and 72.3 and 61.5 and 79.9 and 67.1
- B cells, individual mice [2, 10]: 1614.8 and 2825.59 and 875.433 and 4615.54 and 1539.85
- MDSCs, individual mice [2, 10]: 35014.8 and 125819 and 42394.5 and 66581.6 and 40317.8
- NK cells, individual mice [2, 10]: 12195.1 and 31635.4 and 14041.5 and 15109.2 and 9658.51
- Tregs, individual mice [2, 10]: 1910.56 and 8524.67 and 3417.74 and 9313.01 and 2270.7
- Tumour weights AT-3, individual mice ([3]; 10 mg, Figure 4D, listed as CMP-182, in mg (unit assumed)): 433 and 615 and 255 and 610 and 642 and 344
- Tumour growth AT-3, individual mice [3, 6]: 18.92 and 38.28 and 21.93 and 30.78 and 35.75 and 25.97
- Tumour growth AT-3, individual mice [3, 7]: 24.01 and 35.1 and 25.44 and 30.24 and 37.12 and 27.5
- Tumour growth AT-3, individual mice [3, 8]: 28.5 and 42.21 and 23.76 and 29.58 and 41.04 and 36.4
- Tumour growth AT-3, individual mice ([3]; 10 mg, day 19 post injection, listed as CMP-182, in mm2): 40.71 and 52.8 and 61.32 and 46.5 and 44.4 and 42.9
- Tumour growth AT-3, individual mice ([3]; 10 mg, day 22 post injection, listed as CMP-182, in mm2): 40.95 and 59.13 and 71.25 and 50.16 and 54.4 and 49.4
- Tumour growth AT-3, individual mice ([3]; 10 mg, day 25 post injection, listed as CMP-182, in mm2): 70.31 and 63.7 and 89.04 and 67.08 and 73.15 and 57.67
- Tumour growth AT-3, individual mice ([3]; 10 mg, day 27 post injection, listed as CMP-182, in mm2): 77.08 and 74.4 and 63 and 65.86 and 98.28 and 55.44
- growth of orthotopic AT3 mammary tumors ([3]; 10 mg/kg i.v. every 2 days): repressed the growth
- Tumour weights, median ([3]; AT-3 tumours, CMP-182 10 mg, n=6, Figure 4D): 521.5, n=6
- Tumour size, predicted column mean over all time points ([3]; AT-3 tumours, CMP-182 10 mg, n=6, Figure 4D, in mm2): 48.13
- Tumour size, Mean 2 ([3]; AT-3 tumours, CMP-182 10 mg, n=6, time point 10, Figure 4D, in mm2): 28.61
- Tumour size, Mean 2 ([3]; AT-3 tumours, CMP-182 10 mg, n=6, time point 13, Figure 4D, in mm2): 29.9
- Tumour size, Mean 2 ([3]; AT-3 tumours, CMP-182 10 mg, n=6, time point 16, Figure 4D, in mm2): 33.58
- Tumour size, Mean 2 ([3]; AT-3 tumours, CMP-182 10 mg, n=6, time point 19, Figure 4D, in mm2): 48.11
- Tumour size, Mean 2 ([3]; AT-3 tumours, CMP-182 10 mg, n=6, time point 22, Figure 4D, in mm2): 54.22
- Tumour size, Mean 2 ([3]; AT-3 tumours, CMP-182 10 mg, n=6, time point 25, Figure 4D, in mm2): 70.16
- Tumour size, Mean 2 ([3]; AT-3 tumours, CMP-182 10 mg, n=6, time point 27, Figure 4D, in mm2): 72.34
- liver fibrosis (Picrosirius red) [4]: no signs of liver fibrosis
- lymphocytic infiltrates in liver, lungs, salivary glands and colon [4]: did not observe any overt lymphocytic infiltrates
- circulating aspartate aminotransferase (AST) ([5]; 10 mg/kg i.v.): moderately increased
- serum alanine aminotransferase (ALT) ([5]; 10 mg/kg i.v.): unaffected
- Serum ALT ([5]; Figure 10C, individual mice, listed as CMP-182): 680.498 and 1112.03 and 497.925 and 464.73 and 414.938 and 597.51 and 697.095 and 730.29
- Serum AST ([5]; Figure 10C, individual mice, listed as CMP-182, in U/L (unit assumed)): 1826.92 and 3480.77 and 2019.23 and 1211.54 and 1250 and 1519.23 and 2346.15 and 4019.23
- GPT, median ([5]; Figure 10C, serum ALT, median, n=8): 639.0, n=8
- GOT, median ([5]; Figure 10C, serum AST, median, n=8): 1923, n=8

Source: article PMC10374545, “A small molecule inhibitor of PTP1B and PTPN2 enhances T cell anti-tumor immunity” (Nature Communications, 2023)
